Assay results: patent US20030216358A1, “Method for enhancing bone mineral density gain” (priority 2003, published 2003)

System: postmenopausal women
Experiment: Clinical data, summary in words: BMD and bone turnover markers after alendronate followed by raloxifene
Type: in vivo, human
Conditions: alendronate for one year followed sequentially by raloxifene alone
Experimental: A phase 3, multicenter, double-blind, placebo-controlled, randomized clinical trial was conducted. Objectives of the trial included comparing the effects of 12 months treatment with raloxifene HCl (60 mg/day), alendronate (10 mg/day), or the combination of the two agents together versus placebo on BMD at the lumbar spine and at the hip and also metabolic markers of bone turnover. Additional objectives included comparing the effects of raloxifene 60 mg/day versus placebo during a second year of study on the offset of action of raloxifene or alendronate, as assessed by these same efficacy parameters.
Three hundred thirty-one (331) subjects were randomly assigned to one of four initial treatment groups: placebo, raloxifene 60 mg/day, alendronate 10 mg/day or raloxifene plus alendronate together. After one year of therapy all subjects were re-randomized to receive either placebo or raloxifene 60 mg/day for an additional year of study. All subjects received approximately 500 mg of elemental calcium plus 400-600 I.U. of vitamin D/day throughout the entire study. […] In addition subjects had BMD and biochemical markers of bone turnover (including serum osteocalcin) repeated at six monthly intervals.

O=C(c1ccc(OCCN2CCCCC2)cc1)c1c(-c2ccc(O)cc2)sc2cc(O)ccc12 [raloxifene, 6-hydroxy-2-(4-hydroxyphenyl)-3-[4-(2-piperidinoethoxy)benzoyl]-benzo[b]thiophene]
bone turnover markers: either return towards normal or remain suppressed but do not further decrease
BMD (compared to alendronate followed by placebo): further increases of BMD
